One test relates to HCV replicon. Description: HCV replicon assay (FRET or luciferase reporter). It is filed as cell-based. Conditions: Hepatitis C virus, one of the methods described. The procedure, abridged:
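HCV replicon Huh-7 cells were exposed to titrated compound at 37 °C, with Alamar blue as a cytotoxicity read. Replication was measured by NS3 cleavage of an EDANS/DABCYL FRET peptide (20 μM, 340/490 nm kinetic read) or by Renilla luciferase, with background from high-dose protease inhibitor wells. EC50 was taken as 50% signal reduction; a 384-well format used 3.0×10^3 cells/well, 0.5% DMSO and 3 days.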
In general terms: Replicon systems follow genome replication, usually without infectious particles.

In a further test the target is T1, HCV NS5B (Hepatitis C virus genotype 1b, UniProt Q9WMX2).
T1 construct: The protein was expressed with an 18 amino acid C-terminal truncation to enhance the solubility; made in house; host or cells: E. coli BL21(DE3)
T1 sequence (Q9WMX2 2420-2992): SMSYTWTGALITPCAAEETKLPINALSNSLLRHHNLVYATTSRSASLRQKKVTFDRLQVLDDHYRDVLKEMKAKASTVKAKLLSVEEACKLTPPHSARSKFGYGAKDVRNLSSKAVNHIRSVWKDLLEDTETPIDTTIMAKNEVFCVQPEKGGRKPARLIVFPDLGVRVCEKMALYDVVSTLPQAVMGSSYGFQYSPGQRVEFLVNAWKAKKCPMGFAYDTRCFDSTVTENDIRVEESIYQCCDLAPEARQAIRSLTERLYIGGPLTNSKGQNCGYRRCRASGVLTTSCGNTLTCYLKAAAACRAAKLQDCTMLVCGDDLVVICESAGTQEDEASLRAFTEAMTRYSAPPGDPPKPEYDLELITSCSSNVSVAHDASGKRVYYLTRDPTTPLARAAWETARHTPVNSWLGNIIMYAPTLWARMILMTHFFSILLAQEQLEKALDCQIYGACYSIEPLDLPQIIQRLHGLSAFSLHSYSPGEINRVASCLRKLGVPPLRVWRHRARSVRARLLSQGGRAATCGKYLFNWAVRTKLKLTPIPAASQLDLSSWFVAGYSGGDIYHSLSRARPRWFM
Nature of the test: Modified HCV NS5B RdRp enzyme assay (preincubation protocol). In kind it is biochemical. An outline of the steps:
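C-terminally truncated (Δ18) genotype 1b NS5B from E. coli, 14 nM, added to compound first, then polyA template (0.2 nM), 3H-UTP (0.29 μM) and oligo-dT12 primer precaptured on streptavidin SPA beads (20 nM). Run 4 h at 30° C, pH 7.5, 2% DMSO; IC50 fitted from seven concentrations.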

This is an account of results in patent publication US8133884B2, “Compounds for the treatment of hepatitis C” (priority 2008, dated 2012).

On to `COc1ccc2c(c1)C=C(c1c(C(=O)N3C[C@@H](C)O[C@@H](C)C3)cnn1-c1cc[nH]c(=O)c1)Cn1c-2c(C2CCCCC2)c2ccc(C(=O)NS(=O)(=O)C(C)C)cc21`, for which the concentration for a half-maximal effect (EC50) in the test with HCV replicon (class symbol) and in the test on HCV replicon (exact value) was above 1000 nM each time. The IC50 – broadly, the concentration needed to halve the response being measured – on HCV NS5B (class symbol) is 1.7 to 500 nM; against HCV NS5B (exact value) it was 8.9 nM.

For `COc1ccc2c(c1)C=C(c1c(C(=O)N3CCC(F)(F)CC3)cnn1C1CCC1)Cn1c-2c(C2CCCCC2)c2ccc(C(=O)NS(=O)(=O)C(C)C)cc21`, the EC50 (commonly the midpoint of the concentration-response curve) in the test on HCV replicon (class symbol) lay within 1.7 to 500 nM. The same compound came in with an IC50 against HCV NS5B (class symbol) of 1.7 to 500 nM.

In the test on HCV replicon (class symbol), `COc1ccc2c(c1)C=C(c1c(C(=O)N3C[C@@H]4C[C@H]3CN4)cnn1C1CCC1)Cn1c-2c(C2CCCCC2)c2ccc(C(=O)NS(=O)(=O)C(C)C)cc21` registered an EC50 of 1.7 to 500 nM. At HCV NS5B (class symbol), the IC50 is 1.7 to 500 nM.

On to `COc1ccc2c(c1)C=C(c1c(C(=O)N3C4CCCC3COC4)cnn1C1CCC1)Cn1c-2c(C2CCCCC2)c2ccc(C(=O)NS(=O)(=O)C(C)C)cc21`, for which, in the test with HCV replicon (class symbol), the concentration giving a half-maximal response (EC50) fell in the range of 1.7 to 500 nM. This compound also came in with an IC50 at HCV NS5B (class symbol) of 1.7 to 500 nM.

With `COc1ccc2c(c1)C=C(c1c(C(=O)N3CCOCC3)noc1C1CC1)Cn1c-2c(C2CCCCC2)c2ccc(C(=O)NS(=O)(=O)N(C)C)cc21`, the EC50 in the test with HCV replicon (class symbol) fell in the range of 1.7 to 500 nM. The same compound gave an IC50 against HCV NS5B (class symbol) of 1.7 to 500 nM.

Regarding `COc1ccc2c(c1)C=C(c1ncn(C3CCC3)c1C(=O)N1CCOCC1)Cn1c-2c(C2CCCCC2)c2ccc(C(=O)NS(=O)(=O)C(C)C)cc21`, the EC50 was 1.7 to 500 nM in the test with HCV replicon (class symbol) and 9 nM in the test on HCV replicon (exact value). Also, the IC50 is 1.7 to 500 nM on HCV NS5B (class symbol) and 1.8 nM on HCV NS5B (exact value).

As to `COc1ccc2c(c1)C=C(c1c(C(=O)N3C4CCCC3COC4)cnn1-c1ccncc1C)Cn1c-2c(C2CCCCC2)c2ccc(C(=O)NS(=O)(=O)C(C)C)cc21`, the values for the EC50 in the test on HCV replicon (class symbol) and in the test with HCV replicon (exact value) were 1.7 to 500 nM and 4 nM, respectively. Also, the IC50 against HCV NS5B (class symbol) was 1.7 to 500 nM; at HCV NS5B (exact value), 4.3 nM.

With `COc1ccc2c(c1)C=C(c1c(C(=O)N3C[C@@H](C)O[C@@H](C)C3)cnn1C1CCC1)Cn1c-2c(C2CCCCC2)c2ccc(C(=O)NS(=O)(=O)N(C)C)cc21` [drawing 259], the EC50 in the test with HCV replicon (class symbol) lay in the range of 1.7 to 500 nM. The compound further came in with an IC50 at HCV NS5B (class symbol) of 1.7 to 500 nM.

For the compound `CCOC(=O)c1cnn(C2CCN(C)CC2)c1C1=Cc2cc(OC)ccc2-c2c(C3CCCCC3)c3ccc(C(=O)NS(=O)(=O)C(C)C)cc3n2C1`, in the test on HCV replicon (class symbol), the EC50 fell in the range of 1.7 to 500 nM. The IC50 against HCV NS5B (class symbol) is 1.7 to 500 nM.

In turn, `COc1ccc2c(c1)C=C(c1c(C(=O)N3CC[C@H]4C[C@H]43)cnn1C1CCC1)Cn1c-2c(C2CCCCC2)c2ccc(C(=O)NS(=O)(=O)C(C)C)cc21` registered a half-maximal effective concentration (EC50) in the test with HCV replicon (class symbol) of 1.7 to 500 nM. The IC50 at HCV NS5B (class symbol) was 1.7 to 500 nM.

`COc1ccc2c(c1)C=C(c1c(C(=O)N3C[C@@H](C)O[C@@H](C)C3)cnn1-c1cccnc1)Cn1c-2c(C2CCCCC2)c2ccc(C(=O)NS(=O)(=O)C(C)C)cc21` showed an EC50 in the test on HCV replicon (class symbol) of 1.7 to 500 nM. This compound also came in with an IC50 against HCV NS5B (class symbol) of 1.7 to 500 nM.

`COc1ccc2c(c1)C=C(c1c(C(=O)N3C[C@@H](C)O[C@@H](C)C3)cnn1-c1ccccc1)Cn1c-2c(C2CCCCC2)c2ccc(C(=O)NS(=O)(=O)C(C)C)cc21` displayed an EC50 with HCV replicon (class symbol) of 1.7 to 500 nM. For the same compound, the IC50 on HCV NS5B (class symbol) is 1.7 to 500 nM.

In the test with HCV replicon (class symbol), `COc1ccc2c(c1)C=C(c1c(C(=O)N3CCN(C)CC3)c(C)nn1C1CCC1)Cn1c-2c(C2CCCCC2)c2ccc(C(=O)NS(=O)(=O)C(C)C)cc21` gave an EC50 of 1.7 to 500 nM. For the same compound, at HCV NS5B (class symbol), the IC50 fell in the range of 1.7 to 500 nM.

In the test on HCV replicon (class symbol), `COc1ccc2c(c1)C=C(c1c(C(=O)N3C[C@@H](C)N(C)[C@@H](C)C3)cnn1C1CC1)Cn1c-2c(C2CCCCC2)c2ccc(C(=O)NS(=O)(=O)C(C)C)cc21` yielded an EC50 of 1.7 to 500 nM. Further, the IC50 on HCV NS5B (class symbol) was 1.7 to 500 nM.

`COc1ccc2c(c1)C=C(c1c(C(=O)N3C4CCC3CN(C)C4)cnn1C1CCC1)Cn1c-2c(C2CCCCC2)c2ccc(C(=O)NS(=O)(=O)C(C)C)cc21`: in the test on HCV replicon (class symbol), the EC50 fell in the range of 1.7 to 500 nM. For the same compound, the IC50 against HCV NS5B (class symbol) fell in the range of 1.7 to 500 nM.

As to `COc1ccc2c(c1)C=C(c1c(C(=O)N3C[C@@H]4C[C@H]3CN4CC3CC3)cnn1C1CCC1)Cn1c-2c(C2CCCCC2)c2ccc(C(=O)NS(=O)(=O)C(C)C)cc21`, the EC50 in the test with HCV replicon (class symbol) fell in the range of 1.7 to 500 nM. On HCV NS5B (class symbol), this compound showed an IC50 of 1.7 to 500 nM.

On to `COc1ccc2c(c1)C=C(c1c(C(=O)N3C[C@@H](C)O[C@@H](C)C3)ncn1C1CCC1)Cn1c-2c(C2CCCCC2)c2ccc(C(=O)NS(=O)(=O)C(C)C)cc21`, for which, in the test with HCV replicon (class symbol), the EC50 lay in the range of 1.7 to 500 nM. The half-inhibitory concentration (IC50) against HCV NS5B (class symbol) was 1.7 to 500 nM.

As for `COc1ccc2c(c1)C=C(c1c(C(=O)N3C[C@@H]4C[C@H]3CN4)c(C)nn1C1CCC1)Cn1c-2c(C2CCCCC2)c2ccc(C(=O)NS(=O)(=O)C(C)C)cc21`, in the test on HCV replicon (class symbol), the EC50 is 1.7 to 500 nM. Besides, the IC50 on HCV NS5B (class symbol) is below 1.7 nM.

In the test with HCV replicon (class symbol), `COc1ccc2c(c1)C=C(c1c(C(=O)N3C4CCC3CC4)cnn1C1CCC1)Cn1c-2c(C2CCCCC2)c2ccc(C(=O)NS(=O)(=O)C(C)C)cc21` showed an EC50 of 1.7 to 500 nM. On HCV NS5B (class symbol), this compound registered a half-inhibitory concentration (IC50) of 1.7 to 500 nM.

Take `COc1ccc2c(c1)C=C(c1c(C(=O)N3C4CCC3CN(C)C4)cnn1C1CCOCC1)Cn1c-2c(C2CCCCC2)c2ccc(C(=O)NS(=O)(=O)CC(C)C)cc21`: the EC50 in the test on HCV replicon (class symbol) fell in the range of 1.7 to 500 nM. The compound further came in with an IC50 against HCV NS5B (class symbol) of 1.7 to 500 nM.

With `CCOC(=O)c1cnn(C2CC[N+](C)([O-])CC2)c1C1=Cc2cc(OC)ccc2-c2c(C3CCCCC3)c3ccc(C(=O)NS(=O)(=O)C(C)C)cc3n2C1` (centres unmarked), the results for the EC50 in the test on HCV replicon (class symbol) and in the test on HCV replicon (exact value) were 1.7 to 500 nM and 220 nM, respectively. The IC50 against HCV NS5B (class symbol) was 1.7 to 500 nM; on HCV NS5B (exact value) it was 5.1 nM.

In the case of `COC[C@@H]1CN(C(=O)c2c(C)nn(C3CCC3)c2C2=Cc3cc(OC)ccc3-c3c(C4CCCCC4)c4ccc(C(=O)NS(=O)(=O)C(C)C)cc4n3C2)CCO1`, the EC50 with HCV replicon (class symbol) was in the range of 1.7 to 500 nM. Also, on HCV NS5B (class symbol), the IC50 lay in the range of 1.7 to 500 nM.

Consider `COc1ccc2c(c1)C=C(c1c(C(=O)N3CC4CCC(C3)N4C)cnn1C1CCOCC1)Cn1c-2c(C2CCCCC2)c2ccc(C(=O)NS(=O)(=O)C(C)C)cc21`, for which, in the test on HCV replicon (class symbol), the EC50 is 1.7 to 500 nM. The compound also had an IC50 on HCV NS5B (class symbol) of 1.7 to 500 nM.

Consider `COc1ccc2c(c1)C=C(c1c(C(=O)N3C4CCCC3COC4)cnn1C1CCN(C)CC1)Cn1c-2c(C2CCCCC2)c2ccc(C(=O)NS(=O)(=O)C(C)C)cc21`, for which, in the test on HCV replicon (class symbol), the EC50 lay within 1.7 to 500 nM. Moreover, the IC50 against HCV NS5B (class symbol) is 1.7 to 500 nM.

In the test on HCV replicon (class symbol), `COc1ccc2c(c1)C=C(c1c(C(=O)N3C[C@@H](C)O[C@@H](C)C3)cnn1-c1ccncc1)Cn1c-2c(C2CCCCC2)c2ccc(C(=O)NS(=O)(=O)C(C)C)cc21` had an EC50 of 1.7 to 500 nM. This compound also returned a half-inhibitory concentration (IC50) against HCV NS5B (class symbol) of 1.7 to 500 nM.

`COc1ccc2c(c1)C=C(c1c(C(=O)N3C[C@@H](C)O[C@@H](C)C3)cnn1-c1nc3ccccc3[nH]1)Cn1c-2c(C2CCCCC2)c2ccc(C(=O)NS(=O)(=O)C(C)C)cc21`: the EC50 is 1.7 to 500 nM with HCV replicon (class symbol) and 150 nM in the test on HCV replicon (exact value). The results for the IC50 against HCV NS5B (class symbol) and at HCV NS5B (exact value) were 1.7 to 500 nM and 9 nM, respectively.

`COc1ccc2c(c1)C=C(c1c(C(=O)N3C[C@@H](C)N(C)[C@@H](C)C3)cnn1C1CCOCC1)Cn1c-2c(C2CCCCC2)c2ccc(C(=O)NS(=O)(=O)C(C)C)cc21` registered a 50% effective concentration (EC50) with HCV replicon (class symbol) of 1.7 to 500 nM. Further, the 50% inhibitory concentration (IC50) on HCV NS5B (class symbol) lay within 1.7 to 500 nM.

Compound `COc1ccc2c(c1)C=C(c1c(C(=O)N3C[C@@H](C)O[C@@H](C)C3)cnn1-c1cnccn1)Cn1c-2c(C2CCCCC2)c2ccc(C(=O)NS(=O)(=O)C(C)C)cc21` gave an EC50 in the test with HCV replicon (class symbol) of 1.7 to 500 nM. This compound also registered an IC50 against HCV NS5B (class symbol) of 1.7 to 500 nM.

As for `COc1ccc2c(c1)C=C(c1c(C(=O)N3C[C@@H]4C[C@H]3CN4C)c(C)nn1C1CCC1)Cn1c-2c(C2CCCCC2)c2ccc(C(=O)NS(=O)(=O)C(C)C)cc21`, the EC50 in the test with HCV replicon (class symbol) lay within 1.7 to 500 nM. For the same compound, on HCV NS5B (class symbol), the IC50 lay in the range of 1.7 to 500 nM.
